The test system of this experiment is HuVEC cells. As to the kind of experiment: VEGF-induced tube formation assay. In kind it is cell-based, human. The following applies: VEGF (50 ng/ml), sulforaphane 5 uM. As for the experimental part: The tube formation assay is an in vitro a model of angiogenesis commonly used to measure the ability of endothelial cells to form “tubes” (i.e. three-dimensional structures that resemble vessel walls). Tube formation studies were conducted in a 96-well plate format using an in vitro angiogenesis assay kit from Trevigen Inc. (Trevigen, Gaithersburg, Md.). Prior to tube formation assay, Huvec cells were starved overnight in EGM-2 basal medium in the culture dish. […] The cells were harvested and counted, and a single cell suspension at 1×10^6 cells/ml was prepared. […] Tube formation was visualized using a fluorescence microscope (485 nm excitation/520 nm emission) at 200× total magnification. Numbers of branch points were counted for each of six randomly chosen fields, and then averaged for each condition. […] Statistical significance was determined using student t-test.
The tube formation was quantified and expressed as mean number of branching points per viewing field as shown in FIG. 5F for the high dose treatment using nanoparticles of ZnMoS4.
The Huvec cells were harvested, counted, and diluted in EBM-2 basal medium in the presence (Panels B-E) or absence (Panels A) of VEGF (50 ng/ml) and ZnMoS4 NPs at 50 ng/ml (Panel C) and 10 ng/ml (Panel D). […] F. Quantitative assessment of the tube formation was done by counting the average number of branch points per viewing field. […]

On to `C[S+]([O-])CCCCN=C=S` (stereo not shown) [sulforaphane], for which the tube formation entry is listed as “prevented tube formation”.

(Values after patent US20160220500A1, “Targeting Intracellular Copper Ions for Inhibiting Angiogenesis Using Nanoparticles of Ternary Inorganic Metal Sulfide M1M2S4 (M1, independently, is Mg, Ca, Mn, Fe, or Zn; M2 = Mo or W) Compounds to Treat Metastatic Cancer” (KENT STATE UNIVERSITY, priority 2014, published 2016).)
